Measured values published in the SangsterLogP compilation.
Residues, ends and D or L forms follow the SMILES beside them. *: point of attachment. Cbz = O=C(OCc1ccccc1)*

Test: method code SF, from Hansch, C. & Leo, A. (1987). Log P database [Dataset]. Pomona College Medicinal Chemistry Project.
Details: not given

Row | Compound | logP
1 | CC(=O)Oc1cccc(C(F)(F)F)c1 | 2.63
2 | O=C(c1ccncc1)c1ccc([N+](=O)[O-])cc1 | 1.76
3 | Clc1ccc2[nH]c(CCCCCc3nc4cc(Cl)ccc4[nH]3)nc2c1 | 1.98
4 | CSSC | 1.77
5 | CC1=Nc2ccc(S(=O)(=O)N(C)C)cc2S(=O)(=O)N1 | 0.32
6 | CNC(=O)CSP(=S)(OC)OC | 0.8
7 | Cc1ccc2c(ccc[n+]2[O-])c1 | 0.95
8 | CCN(CC)c1ccc(NC(=O)N(C)OC)cc1 | 2.33
9 | CCCCC1OC(=O)c2cc(N(CCO)CCO)ccc21 (configuration not stated) | 1.34
10 | COP(=O)(NCC(C)C)Oc1cc(Cl)c(Cl)cc1Cl (configuration not stated) | 3.86
11 | CC(=O)Nc1ccc(S(C)(=O)=O)cc1 | 0.58
12 | O=C(O)c1cccs1 | 1.57
13 | Clc1ccc2[nH]c(CCCCCCc3nc4cc(Cl)ccc4[nH]3)nc2c1 | 1.38
14 | COc1cccc2c1C(=O)c1c(O)c3c(c(O)c1C2=O)CC(O)(C(=O)CN1CCOCC1)CC3OC1CC(N)C(O)C(C)O1 (configuration not stated) | 0.23
15 | C=C1C[C@]23C[C@@]1(O)CC[C@H]2[C@@]12C=C[C@H](O)[C@@](C)(C(=O)O1)[C@H]2[C@@H]3C(=O)O | 0.24
16 | Nc1ccc2cc3ccccc3nc2c1 | 2.19
17 | NC(=O)Nc1cccc(NC(N)=O)c1 | 0.58
18 | COC(=O)CCC(=O)N(C)c1ccc(S(=O)(=O)N(C)C)cc1 | 0.43
19 | CSC(=O)Nc1ccccc1 | 2.4
20 | CCCNCCC | 1.73
21 | CC(C)C(NC(=O)OCc1ccccc1)C(=O)NC(Cc1ccc(O)cc1)C(=O)O (stereo not drawn) (Cbz-Val-Tyr-OH; configuration not given here) | 2.43
22 | NNC(=O)c1ccccc1 | 0.21
23 | COc1ccc(C(=O)N(C)C)cc1 | 0.96
24 | OCCOc1c(Br)cc(Br)cc1Br | 3.42
25 | COC(=O)C[C@](O)(CCCC(C)(C)O)C(=O)OC1C(OC)=C[C@]23CCCN2CCc2cc4c(cc2[C@H]13)OCO4 (some centres not stated) | 0.82
26 | O=C(CNC(=O)c1ccccc1)Oc1cccc(C(F)(F)F)c1 | 3.3
27 | CC1=Nc2cc(Br)ccc2S(=O)(=O)N1 | 1.37

The next lines start with the values.

Row | logP | Compound
28 | 3.79 | c1ccc(COc2ccccc2)cc1
29 | 1.3 | NC(=O)Nc1cnc2ccccc2n1
30 | 1.89 | CC(=O)C(Cc1ccccc1)C(C)=O
31 | 1.33 | CC(=O)Oc1ccccc1C#N
32 | 2.85 | CCC(C)NC(=O)/C=C/c1ccccc1 (configuration not stated)
33 | 3.13 | Cc1ccc(C(O)c2ccccc2)cc1 (configuration not stated)
34 | 0.78 | CN(C)C(=O)COc1ccccc1
35 | 0.57 | Nc1ccccc1O
36 | 0.68 | O=c1cc2ccccc2n[nH]1
37 | 3.56 | CCC(C)NC(=O)/C(Br)=C\c1ccccc1 (configuration not stated)
38 | 0.53 | NC(N)=Nc1ccccc1
39 | 3.28 | CCCCCC(=O)Nc1ccccc1
40 | 1.41 | O=C(O)Cc1c[nH]c2ccccc12
41 | 1.53 | CCOC(=O)C(O)c1ccccc1 (configuration not stated)
42 | -0.45 | O=c1c2ccccc2ncn1O

Same assay, conditions: pH 3.0

Row | logD | Compound
43 | 0 | Cn1nnnc1SCC1=C(C(=O)O)N2C(=O)C(NC(=O)Cc3cccs3)C2SC1 (configuration not stated)

Same assay, conditions: pH 5.0

Row | Compound | logD
44 | O=c1cccccc1O | 0.75

Same assay, conditions: pH 6.8

Row | logD | Compound
45 | 2.31 | COC1(NC(=O)CSC(F)F)C(=O)N2C(C(=O)OCC(=O)C(C)(C)C)=C(CSC3(C)N=NN=N3)CSC21 (configuration not stated)

Same assay, conditions: pH 7.3

Row | logD | Compound
46 | 2.31 | Nc1ncnc2nc(-c3ccccc3)[nH]c12

Same assay, conditions: pH 7.4

Row | Compound | logD
47 | CC(C)COCC1CNc2nc(N)[nH]c(=O)c2N1 (configuration not stated) | 0.45
48 | C=CCn1c(=O)c(N(C)C)c(C)n(-c2ccccc2)c1=O | 1.98

The next lines start with the values.

Row | logD | Compound
49 | 1.3 | Cc1c(N(C)C)c(=O)n(-c2ccccc2)c(=O)n1C
50 | 1.8 | CCn1c(C)c(N(C)C)c(=O)n(-c2ccccc2)c1=O

Same assay, conditions: pH 7.5

Row | logD | Compound
51 | -1.88 | O=C[C@H](O)[C@@H](O)[C@H](O)[C@H](O)CO

Same assay, conditions: pH 8.0

Row | logD | Compound
52 | 1.06 | CC(=O)OC(OC(C)=O)c1ccc([N+](=O)[O-])o1

Same assay, conditions: pH 11.0

Row | Compound | logD
53 | c1cncc([C@@H]2CCCCN2)c1 | 0.97

Same assay, conditions: pH 12.3

Row | logD | Compound
54 | 1.69 | CCC[C@H]1CN[C@H](C(=O)N[C@@H]([C@H]2O[C@H](SC)[C@H](O)[C@@H](O)[C@H]2O)[C@H](C)Cl)C1

Same assay, conditions: pH 13.0

Row | logD | Compound
55 | 1 | Nc1nc(N)c2ccccc2n1
56 | 2.98 | c1ccc(N2CCCCC2)cc1
57 | -1.09 | Nc1cn[nH]c1
